Source: patent publication US20090299044A1 (priority 2006, published 2009)
Bridge positions count the residues as written; N and C are the ends. Ends that are not written are not given here. Peptide text beside a SMILES is read from it.

B1: FcLoop-L2-OsK1-L2: OsK1 inserted into the human IgG1 Fc-loop between Leu139 and Thr140 with 2-Gly linkers (protein)
chain: MDKTHTCPPCPAPELLGGPSVFLFPPKPKDTLMISRTPEVTCVVVDVSHEDPEVKFNWYVDGVEVHNAKTKPREEQYNSTYRVVSVLTVLHQDWLNGKEYKCKVSNKALPAPIEKTISKAKGQPREPQVYTLPPSRDELGGGVIINVKCKISRQCLEPCKKAGMRFGKCMNGKCHCTPKGGTKNQVSLTCLVKGFYPSDIAVEWESNGQPENNYKTTPPVLDSDGSFFLYSKLTVDKSRWQQGNVFSCSVMHEALHNHYTQKSLSLSPGK
modifications: Definition of Artificial Sequence: Synthetic protein
B2: FcLoop-L2-ShK-L2: ShK inserted into the human IgG1 Fc-loop with 2-Gly linkers (protein)
chain: MDKTHTCPPCPAPELLGGPSVFLFPPKPKDTLMISRTPEVTCVVVDVSHEDPEVKFNWYVDGVEVHNAKTKPREEQYNSTYRVVSVLTVLHQDWLNGKEYKCKVSNKALPAPIEKTISKAKGQPREPQVYTLPPSRDELGGRSCIDTIPKSRCTAFQCKHSMKYRLSFCRKTCGTCGGTKNQVSLTCLVKGFYPSDIAVEWESNGQPENNYKTTPPVLDSDGSFFLYSKLTVDKSRWQQGNVFSCSVMHEALHNHYTQKSLSLSPGK
modifications: Definition of Artificial Sequence: Synthetic protein

How the values were obtained:
[1] = tested on: IL-2 production, human whole blood; format: cell-based
human Kv1.3 (CHO) = molecular target: T1, human Kv1.3 (CHO) (Homo sapiens, UniProt P22001); assay: cell-based
T1 construct: expressed in transfected cells; host or cells: CHO

human Kv1.1 = human Kv1.1 (Homo sapiens, UniProt Q09470); assay: cell-based; design: expressed in transfected cells; host or cells: HEK293; settings: Kv1.1 (IC50, pM)
human Kv1.3 channel = human Kv1.3 channel (Homo sapiens, UniProt P22001); assay: cell-based; format: cell-based
human Kv1.1 (HEK293) = molecular target: T2, human Kv1.1 (HEK293) (Homo sapiens, UniProt Q09470); assay: cell-based
T2 construct: expressed in transfected cells; host or cells: HEK293
T2 sequence (Q09470 whole entry): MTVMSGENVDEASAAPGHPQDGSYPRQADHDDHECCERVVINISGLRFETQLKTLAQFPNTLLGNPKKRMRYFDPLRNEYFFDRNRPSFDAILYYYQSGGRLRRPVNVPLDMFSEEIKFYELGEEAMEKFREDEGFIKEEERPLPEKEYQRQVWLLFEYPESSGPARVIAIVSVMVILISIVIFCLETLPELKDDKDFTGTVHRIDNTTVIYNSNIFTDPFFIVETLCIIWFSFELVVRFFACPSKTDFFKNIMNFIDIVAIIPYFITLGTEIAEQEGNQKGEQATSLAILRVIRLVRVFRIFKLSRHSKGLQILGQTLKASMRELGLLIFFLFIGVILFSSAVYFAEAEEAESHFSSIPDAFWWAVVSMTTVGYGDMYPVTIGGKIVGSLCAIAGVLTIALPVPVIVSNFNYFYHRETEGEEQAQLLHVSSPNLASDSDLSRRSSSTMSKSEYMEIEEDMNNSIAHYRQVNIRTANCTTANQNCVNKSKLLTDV

T1 sequence (P22001 whole entry): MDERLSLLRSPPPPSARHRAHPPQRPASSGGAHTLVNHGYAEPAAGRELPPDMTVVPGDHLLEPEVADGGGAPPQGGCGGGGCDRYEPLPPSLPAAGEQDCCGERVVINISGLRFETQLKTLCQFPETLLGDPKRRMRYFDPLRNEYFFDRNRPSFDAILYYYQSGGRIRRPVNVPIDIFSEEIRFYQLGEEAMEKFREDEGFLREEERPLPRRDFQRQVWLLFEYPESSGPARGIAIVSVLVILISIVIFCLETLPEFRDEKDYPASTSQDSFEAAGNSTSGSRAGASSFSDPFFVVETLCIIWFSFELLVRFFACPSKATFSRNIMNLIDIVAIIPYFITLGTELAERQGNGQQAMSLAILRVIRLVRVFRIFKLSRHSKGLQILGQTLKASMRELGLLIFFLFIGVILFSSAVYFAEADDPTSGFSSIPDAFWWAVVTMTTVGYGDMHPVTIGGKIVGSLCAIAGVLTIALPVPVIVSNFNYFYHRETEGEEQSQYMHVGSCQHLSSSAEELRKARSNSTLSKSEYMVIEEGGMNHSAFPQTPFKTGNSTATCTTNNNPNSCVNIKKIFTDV
Sequence of human Kv1.3 channel (P22001 whole entry): as above
Sequence of human Kv1.1 (Q09470 whole entry): as the sequence (Q09470 whole entry) above

Row | Molecule | blockade of the whole blood cytokine response (IL-2 and IFNg), in words [1] | IC50 (human Kv1.3 (CHO)) | IC50 (human Kv1.1) | IC50 (human Kv1.3 channel) | IC50 (human Kv1.1 (HEK293))
1 | SEQ ID No: 4989: OSK1 analog without beta strand 1 (des 1-7), Table 42 (CKISRQCLKPCKDAGMRFGKCMNGKCHC-NH2; ends and bridges not checked) | retain activity in blocking inflammation |  |  |  | 
2 | CC[C@H](C)[C@@H]1NC(=O)[C@H](CCCCN)NC(=O)[C@@H](NC(=O)[C@H](CCCCN)NC(=O)[C@@H](NC(=O)[C@H](CC(N)=O)NC(=O)[C@@H](NC(=O)[C@@H](NC(=O)[C@@H](NC(=O)CN)C(C)C)[C@@H](C)CC)[C@@H](C)CC)C(C)C)CSSC[C@@H]2NC(=O)[C@H](CCCCN)NC(=O)CNC(=O)[C@H](Cc3ccccc3)NC(=O)[C@H](CCCNC(=N)N)NC(=O)[C@H](CCSC)NC(=O)CNC(=O)[C@H](C)NC(=O)[C@H](CCCCN)NC(=O)[C@H](CCCCN)NC(=O)[C@@H]3CSSC[C@@H](C(=O)N[C@H](C(=O)N4CCC[C@H]4C(=O)N[C@@H](CCCCN)C(=O)O)[C@@H](C)O)NC(=O)[C@H](Cc4c[nH]cn4)NC(=O)[C@H](CSSC[C@H](NC(=O)[C@H](CCC(N)=O)NC(=O)[C@H](CCCNC(=N)N)NC(=O)[C@H](CO)NC1=O)C(=O)N[C@@H](CCC(=O)O)C(=O)N[C@@H](CCC(=O)O)C(=O)N1CCC[C@H]1C(=O)N3)NC(=O)[C@H](CCCCN)NC(=O)CNC(=O)[C@H](CC(N)=O)NC(=O)[C@H](CCSC)NC2=O [L15E] (H-GVIINVKCKISRQCEEPCKKAGMRFGKCMNGKCHCTPK-OH; disulfide 8-28, 14-33, 18-35) |  | 0.0475 nM | 65000 pM | 0.19 nM | 0.436 nM
3 | CC[C@H](C)[C@@H]1NC(=O)[C@H](CCCCN)NC(=O)[C@@H](NC(=O)[C@H](CCCCN)NC(=O)[C@@H](NC(=O)[C@H](CC(N)=O)NC(=O)[C@@H](NC(=O)[C@@H](NC(=O)[C@@H](NC(=O)CN)C(C)C)[C@@H](C)CC)[C@@H](C)CC)C(C)C)CSSC[C@@H]2NC(=O)[C@H](CCCCN)NC(=O)CNC(=O)[C@H](Cc3ccccc3)NC(=O)[C@H](CCCNC(=N)N)NC(=O)[C@H](CCSC)NC(=O)CNC(=O)[C@H](C)NC(=O)[C@H](CCCCN)NC(=O)[C@H](CCCCN)NC(=O)[C@@H]3CSSC[C@@H](C(=O)N[C@H](C(=O)N4CCC[C@H]4C(=O)N[C@@H](CCCCN)C(=O)O)[C@@H](C)O)NC(=O)[C@H](Cc4c[nH]cn4)NC(=O)[C@H](CSSC[C@H](NC(=O)[C@H](CCC(N)=O)NC(=O)[C@H](CCCNC(=N)N)NC(=O)[C@H](CO)NC1=O)C(=O)N[C@@H](CC(C)C)C(=O)N[C@@H](CCC(=O)O)C(=O)N1CCC[C@H]1C(=O)N3)NC(=O)[C@H](CCCCN)NC(=O)CNC(=O)[C@H](CC(N)=O)NC(=O)[C@H](CCCNC(=N)N)NC2=O [M29R] (H-GVIINVKCKISRQCLEPCKKAGMRFGKCRNGKCHCTPK-OH; disulfide 8-28, 14-33, 18-35) |  | 0.2 nM | 23000 pM | 0.76 nM | 1.87 nM
4 | CC[C@H](C)[C@@H]1NC(=O)[C@H](CCCCN)NC(=O)[C@@H](NC(=O)[C@H](CCCCN)NC(=O)[C@@H](NC(=O)[C@H](CC(N)=O)NC(=O)[C@@H](NC(=O)[C@@H](NC(=O)[C@@H](NC(=O)CN)C(C)C)[C@@H](C)CC)[C@@H](C)CC)C(C)C)CSSC[C@@H]2NC(=O)[C@H](CCCCN)NC(=O)CNC(=O)[C@H](Cc3ccccc3)NC(=O)[C@H](CCCNC(=N)N)NC(=O)[C@H](CCSC)NC(=O)CNC(=O)[C@H](C)NC(=O)[C@H](CCCCN)NC(=O)[C@H](CCCCN)NC(=O)[C@@H]3CSSC[C@@H](C(=O)N[C@@H](CCC(=O)O)C(=O)N4CCC[C@H]4C(=O)N[C@@H](CCCCN)C(=O)O)NC(=O)[C@H](Cc4c[nH]cn4)NC(=O)[C@H](CSSC[C@H](NC(=O)[C@H](CCC(N)=O)NC(=O)[C@H](CCCNC(=N)N)NC(=O)[C@H](CO)NC1=O)C(=O)N[C@@H](CC(C)C)C(=O)N[C@@H](CCC(=O)O)C(=O)N1CCC[C@H]1C(=O)N3)NC(=O)[C@H](CCCCN)NC(=O)CNC(=O)[C@H](CC(N)=O)NC(=O)[C@H](CCSC)NC2=O [T36E] (H-GVIINVKCKISRQCLEPCKKAGMRFGKCMNGKCHCEPK-OH; disulfide 8-28, 14-33, 18-35) |  | 0.161 nM | 83900 pM | 1.92 nM | > 3.33 nM
5 | CC[C@H](C)[C@@H]1NC(=O)[C@H](CCCCN)NC(=O)[C@@H](NC(=O)[C@H](CCCCN)NC(=O)[C@@H](NC(=O)[C@H](CC(N)=O)NC(=O)[C@@H](NC(=O)[C@@H](NC(=O)[C@@H](NC(=O)CN)C(C)C)[C@@H](C)CC)[C@@H](C)CC)C(C)C)CSSC[C@@H]2NC(=O)[C@H](CCCCN)NC(=O)CNC(=O)[C@H](Cc3ccccc3)NC(=O)[C@H](CCCNC(=N)N)NC(=O)[C@H](CCSC)NC(=O)CNC(=O)[C@H](C)NC(=O)[C@H](CCCCN)NC(=O)[C@H](CCCCN)NC(=O)[C@@H]3CSSC[C@@H](C(=O)N[C@H](C(=O)N4CCC[C@H]4C(=O)N[C@@H](CCCCN)C(=O)O)[C@@H](C)O)NC(=O)[C@H](C)NC(=O)[C@H](CSSC[C@H](NC(=O)[C@H](CCC(N)=O)NC(=O)[C@H](CCCNC(=N)N)NC(=O)[C@H](CO)NC1=O)C(=O)N[C@@H](CC(C)C)C(=O)N[C@@H](CCC(=O)O)C(=O)N1CCC[C@H]1C(=O)N3)NC(=O)[C@H](CCCCN)NC(=O)CNC(=O)[C@H](CC(N)=O)NC(=O)[C@H](CCSC)NC2=O [H34A] (H-GVIINVKCKISRQCLEPCKKAGMRFGKCMNGKCACTPK-OH; disulfide 8-28, 14-33, 18-35) |  | 0.0194 nM | 12800 pM | 0.016 nM | 0.368 nM
6 | CC[C@H](C)[C@@H]1NC(=O)[C@H](CCCCN)NC(=O)[C@@H](NC(=O)[C@H](CCCCN)NC(=O)[C@@H](NC(=O)[C@H](CC(N)=O)NC(=O)[C@@H](NC(=O)[C@@H](NC(=O)[C@@H](NC(=O)CN)C(C)C)[C@@H](C)CC)[C@@H](C)CC)C(C)C)CSSC[C@@H]2NC(=O)[C@H](CCCCN)NC(=O)CNC(=O)[C@H](Cc3ccccc3)NC(=O)[C@H](CCCNC(=N)N)NC(=O)[C@H](CCSC)NC(=O)CNC(=O)[C@H](C)NC(=O)[C@H](CCCCN)NC(=O)[C@H](CCCCN)NC(=O)[C@@H]3CSSC[C@@H](C(=O)N[C@H](C(=O)N[C@@H](CCC(=O)O)C(=O)N[C@@H](CCCCN)C(=O)O)[C@@H](C)O)NC(=O)[C@H](Cc4c[nH]cn4)NC(=O)[C@H](CSSC[C@H](NC(=O)[C@H](CCC(N)=O)NC(=O)[C@H](CCCNC(=N)N)NC(=O)[C@H](CO)NC1=O)C(=O)N[C@@H](CC(C)C)C(=O)N[C@@H](CCC(=O)O)C(=O)N1CCC[C@H]1C(=O)N3)NC(=O)[C@H](CCCCN)NC(=O)CNC(=O)[C@H](CC(N)=O)NC(=O)[C@H](CCSC)NC2=O [P37E] (H-GVIINVKCKISRQCLEPCKKAGMRFGKCMNGKCHCTEK-OH; disulfide 8-28, 14-33, 18-35) |  | 0.0627 nM | 15700 pM | 0.241 nM | 0.622 nM
7 | CC[C@H](C)[C@@H]1NC(=O)[C@H](CCCCN)NC(=O)[C@@H](NC(=O)[C@H](CCCCN)NC(=O)[C@@H](NC(=O)[C@H](CC(N)=O)NC(=O)[C@@H](NC(=O)[C@@H](NC(=O)[C@@H](NC(=O)CN)C(C)C)[C@@H](C)CC)[C@@H](C)CC)C(C)C)CSSC[C@@H]2NC(=O)[C@H](CCCCN)NC(=O)CNC(=O)[C@H](Cc3ccccc3)NC(=O)[C@H](CCCNC(=N)N)NC(=O)[C@H](CCSC)NC(=O)CNC(=O)[C@H](C)NC(=O)[C@H](CCCCN)NC(=O)[C@H](CCCCN)NC(=O)[C@@H]3CSSC[C@@H](C(=O)N[C@H](C(=O)N4CCC[C@H]4C(=O)N[C@@H](CCCCN)C(=O)O)[C@@H](C)O)NC(=O)[C@H](Cc4c[nH]cn4)NC(=O)[C@H](CSSC[C@H](NC(=O)[C@H](CCC(N)=O)NC(=O)[C@H](CCCNC(=N)N)NC(=O)[C@H](CCCNC(=N)N)NC1=O)C(=O)N[C@@H](CC(C)C)C(=O)N[C@@H](CCC(=O)O)C(=O)N1CCC[C@H]1C(=O)N3)NC(=O)[C@H](CCCCN)NC(=O)CNC(=O)[C@H](CC(N)=O)NC(=O)[C@H](CCSC)NC2=O [S11R] (H-GVIINVKCKIRRQCLEPCKKAGMRFGKCMNGKCHCTPK-OH; disulfide 8-28, 14-33, 18-35) |  | 0.0167 nM | 9130 pM | 0.04 nM | 0.21 nM
8 | B1 | potent blockade |  |  |  | 
9 | B2 | potent blockade |  |  |  | 
